Measurements taken from ChEMBL document CHEMBL1138670, “Prospects for inhibitors of protein tyrosine phosphatase 1B as antidiabetic drugs” (J Med Chem, 2004).

How the values were obtained:
[1] = biological target: T1, Tyrosine-protein phosphatase non-receptor type 1 (Homo sapiens, UniProt P18031); experiment: Inhibitory activity against Protein-tyrosine phosphatase 1B at pH 5.5
T1 sequence (P18031 whole entry): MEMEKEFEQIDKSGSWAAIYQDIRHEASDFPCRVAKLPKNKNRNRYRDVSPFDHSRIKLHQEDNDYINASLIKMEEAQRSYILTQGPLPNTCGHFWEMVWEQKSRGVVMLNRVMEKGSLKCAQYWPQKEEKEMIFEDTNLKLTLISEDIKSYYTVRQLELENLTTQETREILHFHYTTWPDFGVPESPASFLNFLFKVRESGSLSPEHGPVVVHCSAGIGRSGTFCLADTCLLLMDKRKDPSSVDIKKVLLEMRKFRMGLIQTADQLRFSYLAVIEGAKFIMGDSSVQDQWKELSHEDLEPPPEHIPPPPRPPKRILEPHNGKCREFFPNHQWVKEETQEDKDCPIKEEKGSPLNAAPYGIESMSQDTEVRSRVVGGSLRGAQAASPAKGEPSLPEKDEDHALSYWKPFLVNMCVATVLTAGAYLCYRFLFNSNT

[2] = biological target: T2, Tyrosine-protein phosphatase non-receptor type 1 (Homo sapiens) (UniProt P18031); experiment: Inhibitory concentration for Protein-tyrosine phosphatase 1B
T2 sequence (whole entry): T1 sequence (P18031 whole entry)

[3] = Bioavailability; type: ADME, organism-based; conditions: eutheria, in vivo; read-out: Fez
[4] = biological target: T1, Tyrosine-protein phosphatase non-receptor type 1; experiment: Inhibitory activity against Protein-tyrosine phosphatase 1B

Molecule `O=C(O)C(=O)Nc1sc2c(c1C(=O)O)CCN[C@H]2CNC(=O)c1cc2cc(F)ccc2[nH]1` has a Ki [1] of 18 nM.
For `CC(C)c1ccc(N2N=C3CSCC=C3C(C#N)=C2N)cc1`, the Concentration [2] was 5.6 µM.
Molecule `O=C(c1ccccc1)C(Cc1ccc(C(F)(F)P(=O)(O)O)cc1)c1ccccc1` (centres undefined) has a bioavailability [3] of 13%.
In the case of `CCc1cc(CC(NC(C)=O)C(=O)NCCCCC(=O)N[C@@H](CCSC)C(=O)O)ccc1N(C(=O)C(=O)O)c1ccccc1C(=O)O` (some centres undefined), the Ki [4] is reported as 77 nM.
